Experimental data: publication PMC8745345, “Hydroxy Pentacyclic Triterpene Acid, Kaempferol, Inhibits the Human 5-Hydroxytryptamine Type 3A Receptor Activity” (International Journal of Molecular Sciences, 2022)
Numbering of substitutions follows the chain as printed.

How the values were obtained:
[1] = target: T1, human 5-HT3A receptor F199A mutant (Homo sapiens, UniProt P46098, F221A); assay: Two-electrode voltage clamp, I5-HT inhibition, F199A mutant; format: cell-based; conditions: −80 mV
T1 sequence (P46098 24-478 F221A): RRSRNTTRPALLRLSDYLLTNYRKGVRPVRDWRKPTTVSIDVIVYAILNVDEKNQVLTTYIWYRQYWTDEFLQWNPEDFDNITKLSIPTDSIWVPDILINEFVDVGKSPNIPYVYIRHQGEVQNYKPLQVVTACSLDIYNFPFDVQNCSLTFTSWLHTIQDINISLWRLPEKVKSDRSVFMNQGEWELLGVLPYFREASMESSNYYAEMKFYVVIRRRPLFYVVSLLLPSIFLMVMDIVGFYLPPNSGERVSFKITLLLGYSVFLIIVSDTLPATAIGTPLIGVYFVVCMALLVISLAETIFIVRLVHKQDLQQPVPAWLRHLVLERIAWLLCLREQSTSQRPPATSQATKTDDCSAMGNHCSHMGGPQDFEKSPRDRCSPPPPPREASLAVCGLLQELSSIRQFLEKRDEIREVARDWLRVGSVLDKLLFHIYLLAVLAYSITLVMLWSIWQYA
Protocol: Xenopus oocytes were used in this study as cells for expression of human 5-HT3A receptor. All female frogs used in this experiment were obtained from the Korean Xenopus Resource Center for Research (KXRCR000001). […] Isolated oocytes were incubated with ND96 incubation buffer (96 mM NaCl, 2 mM KCl, 1 mM MgCl2, 1.8 mM CaCl2, 5 mM HEPES, 2.5 mM sodium pyruvate, and 50 mg/mL gentamycin, pH 7.4) at 18 °C until the experiment was performed. Human 5-HT3A receptor mRNA was injected into oocytes using a nanoinjector (Drummond Scientific, Broomall, PA, USA) with a mineral-filled 10 μL microdispenser (VWR, Piscataway, NJ, USA).
The voltage relationship experiment for confirming the relationship between induce-inward current and voltage, the voltage was varied from −80 mV to +60 mV using a ramp protocol. Each microelectrode was filled with 3 M KCl having a resistance of 0.2 MΩ. […] The rate of application of the reagent was 2 mL per minute. All recording data were analyzed using Clampfit 9.0 (Molecular Devices, San Jose, CA, USA).
Point mutation was performed using Pfu DNA polymerase (Quikchange II Site-Directed Mutagenesis Kit). Chimeric primer design for PCR was performed under appropriate primer design guidelines. […]
All presented experiments were performed at least three times for scientific verification. […] Induced-inward current data were analyzed with SigmaPlot 10.0 software (Systat Software, Inc., San Jose, CA, USA). […]

[2] = target: T2, human 5-HT3A receptor E209A mutant (Homo sapiens, UniProt P46098, E231A); assay: Two-electrode voltage clamp, I5-HT inhibition, E209A mutant; format: cell-based
T2 construct: expressed in transfected cells; host or cells: Xenopus oocytes injected with mutant mRNA
T2 sequence (P46098 24-478 E231A): T1 sequence (P46098 24-478 F221A) with A198F, E208A
Protocol: Human 5-HT3A receptor cDNA was linearized using restriction enzyme XhoI. In vitro transcription was performed using an mMESSAGE mMACHINE T7 Transcription Kit (Thermo Fisher Scientific, Waltham, MA, USA). The final mRNA product was dissolved in 1X Diethyl Pyrocarbonate (RNase-free water) at a final concentration of 1 μg/μL and kept in a deep-freezer at −80 °C until used.
Xenopus oocytes were used in this study as cells for expression of human 5-HT3A receptor. All female frogs used in this experiment were obtained from the Korean Xenopus Resource Center for Research (KXRCR000001). […] Isolated oocytes were incubated with ND96 incubation buffer (96 mM NaCl, 2 mM KCl, 1 mM MgCl2, 1.8 mM CaCl2, 5 mM HEPES, 2.5 mM sodium pyruvate, and […], pH 7.4) at 18 °C until the experiment was performed. Human 5-HT3A receptor mRNA was injected into oocytes using a nanoinjector (Drummond Scientific, Broomall, PA, USA) with a mineral-filled 10 μL microdispenser (VWR, Piscataway, NJ, USA).
For the experiment, induced-inward current was converted to digital data with pClamp 10 software (Axon Instruments, Union City, CA, USA). All experiments were performed at room temperature using an oocyte clamp equipped with Digidata. The membrane holding potential was −80 mV.
The voltage relationship experiment for confirming the relationship between induce-inward current and voltage, the voltage was varied from −80 mV to +60 mV using a ramp protocol. Each microelectrode was filled with 3 M KCl having a resistance of 0.2 MΩ. Serotonin and KAE applied in the experiment were diluted in ND96 bath solution (96 mM NaCl, 2 mM KCl, 1 mM MgCl2, 1.8 mM CaCl2, and 5 mM HEPES, pH 7.5) to specified concentration. The rate of application of the reagent was 2 mL per minute. All recording data were analyzed using Clampfit 9.0 (Molecular Devices, San Jose, CA, USA). […]
All presented experiments were performed at least three times for scientific verification. […] Induced-inward current data were analyzed with SigmaPlot 10.0 software (Systat Software, Inc., San Jose, CA, USA).

[3] = set-up: method as in PMID 21428901; conditions: lipophilic, penetrates the lipid bilayer; cited from earlier work

SMILES: O=c1c(O)c(-c2ccc(O)cc2)oc2cc(O)cc(O)c12 [KAE, kaempferol]
- n (Hill coefficient) [1]: 1.4 ± 0.4
- IC50 ([1]; Table 1): 21.5 ± 5.7 µM
- Vmax ([1]; Table 1): 53.3 ± 10.4%
- IC50 [2]: 55.1 ± 5.8 µM
- Vmax ([2]; E209A, −80 mV): 81.1 ± 9.7%
- n (Hill coefficient) ([2]; E209A, −80 mV): 1.7 ± 0.6
- ability to cross the blood-brain barrier (BBB) [3]: can cross the blood-brain barrier (BBB)
